In US12410391B2, “In vitro cell culture mucus systems” (The University of North Carolina at Chapel Hill, priority 2018, dated 2025):

Tested on: human colonic epithelium (monolayer from human colonic stem cells)
Assay: VIP-stimulated water secretion into the apical reservoir under ALI culture
Format: cell-based
Description: The inserts were rinsed with PBS×1 prior to cell plating. Intestinal epithelial cells were passaged according to the procedure described above except that the cells were suspended in expansion medium (EM-Table 1) and plated directly onto the top compartment of Transwell inserts. Cells from 1 well of the 6-well plate were dispersed into 6 separate 12-well Transwell inserts (1 mL in the upper [apical] reservoir, and 2 mL in the lower [basal] reservoir). The medium was exchanged every 48 h. To induce cell differentiation and mucus production, the medium was switched to differentiation medium (DM-Table 1) after 5 days. In the submerged culture, 1 mL DM was added in the apical reservoir and 2 mL in the basal reservoir. The medium was exchanged every 48 h thereafter. In the ALI culture, the medium in the apical reservoir was completely aspirated, 1 mL DM or DM-VIP (DM containing 330 ng/mL VIP [AnaSpec, #AS-22872]) was added to the basal reservoir, and medium was exchanged every 24 h thereafter. By day 10, the system was suitable for characterization and cytokine assay.
To verify the function of VIP to stimulate water secretion, human colonic stem cells were cultured under EM for 5 days. At day 5, the basal medium was switched to DM with varying VIP concentration and the cells placed under the ALI culture conditions. After 24 h, the water accumulated in the apical reservoir was collected and weighed with an analytical balance. In the absence of VIP, the accumulation of water in the apical reservoir was not measurable. […] A plateau was reached when VIP concentration was >1 ng/mL. At this saturating concentration, approximately 42 mg/cm^2 water accumulated after a 24 h incubation with VIP, corresponding to a water depth in the reservoir of 420 μm.

## vasoactive intestinal peptide [VIP]
ALI culture, 24 h
  VIP concentration at which plateau of water secretion was reached: > 1 ng/mL
Saturating VIP concentration, 24 h incubation
  water accumulated in apical reservoir: approximately 42 mg/cm^2
Saturating VIP concentration, 24 h incubation, corresponds to the accumulated water
  water depth in the reservoir: 420 μm
